According to US20220168322A1, “NOVEL STAT3 INHIBITORS IDENTIFIED BY STRUCTURE-BASED VIRTUAL SCREENING INCORPORATING SH2 DOMAIN FLEXIBILITY” (Board of Regents, The University of Texas System, priority 2018, published 2022):

Test system: G-CSF-stimulated pSTAT3
Assay: Inhibition of G-CSF-stimulated pSTAT3 in Kasumi-1 cells (Luminex, pSTAT3/GAPDH)
Format: cell-based
Conditions: Kasumi1 cells, single concentration of 10 μM, G-CSF 100 ng/ml; pSTAT3/GAPDH relative to DMSO treated cells
Experimental: […] Total protein was assayed for pSTAT3 and GAPDH levels by Luminex. GAPDH-normalized pSTAT3 values were divided by the same for untreated cells and expressed as percentage. These values were plotted as a function of Log [M] compound, and IC50 calculated using GraphPad. Data from representative experiments from at least two repeats is shown.
Luminex bead-based assay. Luminex bead-based assays were used to determine levels of pSTAT3, pSTAT1, pSTAT5, and GAPDH, as described (Bharadwaj et al., 2015). […]

| SMILES | % of Control Stimulated pSTAT3 [%] |
| --- | --- |
| Cc1ccccc1NC(=O)CN1C(=O)S/C(=C/c2ccc(-c3ccc(Cl)c(C(=O)O)c3)o2)C1=O [SPEC-24] | 105 |
| COc1ccc(C(=O)COC(=O)c2ccc(NC(=O)CCCC(=O)O)cc2)cc1 [SPEC-77] | 121 |
| CCC(Sc1nnc(NC(=O)CCc2ccccc2)s1)C(=O)Nc1ccc(C(C)=O)cc1 (stereo not shown) [SPEC-45] | 113 |
| CC(=O)c1ccc(NC(=O)C(C)Oc2ccccc2)cc1 (stereo not shown) [SPEC-94] | 97 |
| COc1cccc(N=C2SC(C(=O)Nc3ccc(C(=O)O)cc3)CC(=O)N2C)c1 (stereo not shown) [SPEC-95] | 104 |
| CC(=O)c1ccc(NC(=O)c2ccc(CSc3nnc(NC(=O)CCc4ccccc4)s3)cc2)cc1 [SPEC-3] | 77 |
| COc1cc(C=Nc2cccc(Cl)c2)ccc1OCC(N)=O [SPEC-41] | 74 |
| CC1=NN(c2ccc(C)cc2)C(=O)/C1=C\c1ccc(-c2ccc(C(=O)O)cc2)o1 [SPEC-46] | 71 |
| O=C(O)c1ccc(-c2ccc(/C=C3/NC(=O)N(c4ccc(Cl)cc4)C3=O)o2)cc1 [SPEC-80] | 89 |
| O=C(CCN1C(=O)S/C(=C\c2ccc(Cl)cc2)C1=O)Nc1ccc(S(=O)(=O)Nc2nccs2)cc1 [SPEC-97] | 55 |
| COc1ccccc1CCNCc1ccc(-c2cccc(C(=O)O)c2)o1 [SPEC-44] | 120 |
| CC(=O)N1CCc2nc(SCC(=O)Nc3cccc(C#N)c3)c(C#N)c(C(F)(F)F)c2C1 [SPEC-62] | 108 |
| O=C(O)c1cccc(-c2ccc(CNCc3ccc4c(c3)OCO4)o2)c1 [SPEC-43] | 96 |
| CCOC(=O)COc1ccc(-c2nc3ccccc3s2)cc1OC [SPEC-33] | 89 |
| O=C(NNC(=O)[C@@H]1CCCC[C@@H]1C(=O)O)c1ccc(NC(=O)C2CC2)cc1 [SPEC-47] | 104 |
| CCOc1ccc(NC(=O)CN2C(=O)S/C(=C/c3ccc(OCC(N)=O)c(OCC)c3)C2=O)cc1 [SPEC-40] | 75 |
| COC(=O)CSc1nc2ccc(NC(=O)c3ccccc3C(=O)N3CCN(c4ccccc4)CC3)cc2s1 [SPEC-27] | 61 |
| O=C(O)COc1ccc(/C=N/NC(=O)C2CCCN2S(=O)(=O)c2ccc(Cl)cc2)cc1 (stereo not shown) [SPEC-13] | 99 |
| CC(=O)c1ccc(NC(=O)CSc2nnc(COc3ccc([N+](=O)[O-])cc3)n2C)cc1 [SPEC-92] | 51 |
| O=C(O)c1ccc(-c2ccc(CNCCc3c[nH]c4ccccc34)o2)cc1 [SPEC-42] | 118 |
| COc1cccc(-c2csc(NC(=O)C3CC(=O)N(c4cccc(Cl)c4)C3)n2)c1 (stereo not shown) [SPEC-75] | 55 |
| O=C(COC(=O)C1C2CC3C(OC(=O)C31)C2Br)c1ccc(Cl)cc1Cl (stereo not shown) [SPEC-74] | 82 |
| C=CCN1C(=O)NC(=O)/C(=C/c2ccc(OCC(=O)Nc3ccc(C)cc3)cc2)C1=O [SPEC-35] | 69 |
| CC(=O)c1ccc(NC(=O)CSc2nnc(CNc3ccc(C)cc3C)n2CC2CCCO2)cc1 (stereo not shown) [SPEC-89] | 68 |
| Cc1c(C)c2ccc(OCC(=O)Nc3cccc([N+](=O)[O-])c3)c(C)c2oc1=O [SPEC-9] | 93 |
| CC(=O)NCCc1ccc(S(=O)(=O)Nc2ccc(C(=O)NCc3ccccc3)cc2)cc1 [SPEC-15] | 98 |
| O=C(CSc1nnc(-c2ccccc2)c(-c2ccccc2)n1)Nc1ccc(S(=O)(=O)Nc2nccs2)cc1 [SPEC-30] | 68 |
| O=C(CCCCC(=O)NNC(=O)COc1ccc2ccccc2c1)NNC(=O)COc1ccc2ccccc2c1 [SPEC-49] | 105 |
